These results are taken from US12692249B2, “WDR5 inhibitors and modulators” (Vanderbilt University, priority 2019, dated 2026).

Assay [1] has as its target WDR5 (Homo sapiens, UniProt P61964). The assay can be described thus: TR-FRET competition binding assay, displacement of 10mer-Thr-FAM MLL peptide probe from His-tagged WDR5. To be noted: WDR5-His tag (residues 24-334) 2 nM; 10mer-Thr-FAM 150 nM; 60 min, room temperature; read-out: Ki for Inhibition of WDR5 by TR-FRET assay. As to the method:
Time Resolved-Fluorescence Energy Transfer Competition Assay […] Excess 10mer-Thr-FAM probe was utilized with His-tagged WDR5 in conjunction with a commercial anti-His antibody containing a Terbium label. The LanthaScreenTM Elite Tb-anti-HIS Antibody from ThermoFisher Scientific was used for this purpose. […] The 10mer-Thr-FAM probe when bound to WDR5 will undergo a FRET interaction with the Tb-anti-HIS and emit at 520 nm. […] WDR[…] 10[…] used at 150 nM. […] A source plate is prepared using an Echo Liquid Handler, which distributes the compounds to the assay plate (white, flat-bottom; OptiPlate) in a 10-point, 5-fold dilution schemes with a top concentration of 5 μM, in a final volume of 20 μL. […] The final DMSO concentration in each well of the assay plate is 1% or lower. The plate is covered, shielded from light, and incubated for 60 minutes at room temperature with rocking. 10mer-Thr-FAM and Anti-His terbium antibody fluorescence is then measured on a Biotek Cytation 3 at excitation wavelength of 340 nm, and emission wavelengths of 495 nm and 520 nm. […] TR-FRET signal is plotted and IC50 and Ki values are calculated according to the formula of Wang Z. FEBS Lett (1996) 3, 245. Ki=[I]50/([L]50/Kd+[P]0/Kd+1) where [I]50 is the concentration of the free inhibitor at 50% inhibition, [L]50 is the concentration of the free labeled ligand at 50% inhibition, [P]0 is the concentration of the free protein at 0% inhibition, Kd represents the dissociation constant of the FITC-MLL or 10mer-Thr-FAM probe for WDR5. Total fluorescence is also measured, to rule out compounds that are inherently fluorescent or able to act as quenchers in the assay. TR-FRET Binding Assay
On the technique in general: TR-FRET usually uses a lanthanide donor and a delayed reading to cut background.

Assay [2] concerns MV4:11 human cancer cell lines. The assay can be described thus: Cellular viability / anti-proliferative assay, CellTiter-Glo, 5 day protocol. The assay is classed as cell-based. The following applies: Homo sapiens, MV4-11, 120 h, MV4:11 cells; 5 day incubation; CellTiter-Glo; mean of at least two replicates; read-out: GI50 on cellular proliferation of MV4:11 human cancer cell lines. Here is the method: Cellular Viability of Human Tumor Cell Lines
Anti-proliferative activity using MLL-harboring cell lines. MV-4-11 and K562 cells are grown in IMDM media supplemented with 10% FBS and 1% penicillin/streptomycin, Molm-13 cells are cultured in RPMI-1640 media supplemented with 10% FBS and 1% penicillin/streptomycin. Viability assays are performed by dispensing 200 cells at 7200 cells/mL into each well of an opaque 384-well plate and adding compounds at the indicated concentrations in a final volume, of 32 μL. and a final concentration of DMSO of 0.3% for all samples. A certain range of compound concentrations is made through a series of 2-fold dilutions starting 30 μM at the highest, total 22 dilutions. After a set incubation period, 5 day protocol, the viability of cells in each well is assessed using the CellTiter-Glo assay (Promega), read on a 96 Microplane Luminometer (Cytation 3, BioTek). Serial dilutions of each cell type are performed in all assays to generate standard curves and the final densities of cells are determined within the dynamic range of the instrument. GI50 values are calculated based on XLfit software (IDBS, Guildford, UK) with Sigmoidal Dose-Response Model. Each compound is tested in minimum of two replicates. Data are expressed as mean.
In general terms: Cellular ATP, detected with luciferase, serves as a proxy for viable cell number.

For the compound `Cc1nccn1Cc1cc2c(c(-c3cn(C)nc3C(F)(F)F)c1)CCN(c1cccc3ccccc13)C2=O` [Example 1, 7-((2-Methyl-1H-imidazol-1-yl)methyl)-5-(1-methyl-3-(trifluoromethyl)-1H-pyrazol-4-yl)-2-(naphthalen-1-yl)-3,4-dihydroisoquinolin-1(2H)-one], the Ki (usually a dissociation constant, usually derived from enzyme kinetics or from competition with a known ligand) in assay [1] was 0.46 nM. Moreover, the GI50 in assay [2] turned out to be 1540 nM.
As for `Cc1nccn1Cc1cc2c(c(-c3cn(C)nc3C(F)(F)F)c1)CCN(c1ccnc3cc(Cl)ccc13)C2=O` [Example 2, 2-(7-Chloroquinolin-4-yl)-7-((2-methyl-1H-imidazol-1-yl)methyl)-5-(1-methyl-3-(trifluoromethyl)-1H-pyrazol-4-yl)-3,4-dihydroisoquinolin-1(2H)-one], the inhibitory constant (Ki) in assay [1] is 0.05 nM. In addition, the GI50 in assay [2] was 189 nM.
With `COc1cnc2cccc(N3CCc4c(cc(Cn5ccnc5C)cc4-c4cn(C)nc4C(F)(F)F)C3=O)c2c1` [Example 3, 2-(3-Methoxyquinolin-5-yl)-7-((2-methyl-1H-imidazol-1-yl)methyl)-5-(1-methyl-3-(trifluoromethyl)-1H-pyrazol-4-yl)-3,4-dihydroisoquinolin-1(2H)-one], in assay [1], the Ki is under 0.02 nM. In addition, the GI50 in assay [2] amounted to 20 nM.
In the same order, the values of `COc1ccc2nccc(N3CCc4c(cc(Cn5ccnc5C)cc4-c4cn(C)nc4C(F)(F)F)C3=O)c2c1` [Example 4, 2-(6-Methoxyquinolin-4-yl)-7-((2-methyl-1H-imidazol-1-yl)methyl)-5-(1-methyl-3-(trifluoromethyl)-1H-pyrazol-4-yl)-3,4-dihydroisoquinolin-1(2H)-one] are under 0.02 nM and under 20 nM.
Take `COc1ccc2ccnc(N3CCc4c(cc(Cn5ccnc5C)cc4-c4cn(C)nc4C(F)(F)F)C3=O)c2c1` [Example 5, 7-Methoxy-7′-((2-methyl-1H-imidazol-1-yl)methyl)-5-(1-methyl-3-(trifluoromethyl)-1H-pyrazol-4-yl)-3′,4-dihydro-1′H-[1,2′-biisoquinolin]-1′-one]: in assay [1], the Ki is 0.034 nM. Also, the GI50 in assay [2] came to 83 nM.
For `COc1cc2c(N3CCc4c(cc(Cn5ccnc5C)cc4-c4cn(C)nc4C(F)(F)F)C3=O)ccnc2cc1C` [Example 6, 2-(6-Methoxy-7-methylquinolin-4-yl)-7-((2-methyl-1H-imidazol-1-yl)methyl)-5-(1-methyl-3-(trifluoromethyl)-1H-pyrazol-4-yl)-3,4-dihydroisoquinolin-1(2H)-one], the Ki in assay [1] was 0.024 nM. The GI50 in assay [2] came out at 32 nM.
As to `CCc1cc(C(=O)NC)c2nc(C)cc(N3CCc4c(cc(Cn5ccnc5)cc4-c4cn(C)nc4C(F)(F)F)C3=O)c2c1` [Example 178], the GI50 in assay [2] was under 20 nM.
Same read-out and setting: the figure for `COc1cc(-c2n[nH]c(=O)o2)c2nc(C)cc(N3CCc4c(cc(Cn5ccnc5)cc4-c4cn(C)nc4C(F)(F)F)C3=O)c2c1` [Example 180, 5-(4-(7-((1H-Imidazol-1-yl)methyl)-5-(1-methyl-3-(trifluoromethyl)-1H-pyrazol-4-yl)-1-oxo-3,4-dihydroisoquinolin-2(1H)-yl)-6-methoxy-2-methylquinolin-8-yl)-1,3,4-oxadiazol-2(3-1)-one] is 68 nM; for `CCc1cc(OC)c2nccc(N3CCc4c(cc(Cn5ccnc5)cc4-c4cccnc4C(F)(F)F)C3=O)c2c1` [Example 185, 7-((1H-Imidazol-1-yl)methyl)-2-(6-ethyl-8-methoxyquinolin-4-yl)-5-(2-(trifluoromethyl)pyridin-3-yl)-3,4-dihydroisoquinolin-1(2H)-one] it is 55 nM.
Consider `COc1cc(N2CCC(NC(C)=O)CC2)c2nc(C)cc(N3CCc4c(cc(Cn5ccnc5)cc4-c4cn(C)nc4C(F)(F)F)C3=O)c2c1` [Example 192, N-(1-(4-(7-((1H-Imidazol-1-yl)methyl)-5-(1-methyl-3-(trifluoromethyl)-1H-pyrazol-4-yl)-1-oxo-3,4-dihydroisoquinolin-2(1H)-yl)-6-methoxy-2-methylquinolin-8-yl)piperidin-4-yl)acetamide], for which the GI50 in assay [2] was under 20 nM.
Still for that read-out and setting: next, `CCc1cc(C(=O)NC2CCN(C)C2)c2nccc(N3CCc4c(cc(Cn5ccnc5)cc4-c4cn(C)nc4C(F)(F)F)C3=O)c2c1` (stereo not shown) [Example 193, 4-(7-((1H-Imidazol-1-yl)methyl)-5-(1-methyl-3-(trifluoromethyl)-1H-pyrazol-4-yl)-1-oxo-3,4-dihydroisoquinolin-2(1H)-yl)-6-ethyl-N-(1-methylpyrrolidin-3-yl)quinoline-8-carboxamide]: under 20 nM; `COc1cc(-c2nnn[nH]2)c2nc(C)cc(N3CCc4c(cc(Cn5ccnc5)cc4-c4cn(C)nc4C(F)(F)F)C3=O)c2c1` [Example 196, 7-((1H-Imidazol-1-yl)methyl)-2-(6-methoxy-2-methyl-8-(1H-tetrazol-5-yl)quinolin-4-yl)-5-(1-methyl-3-(trifluoromethyl)-1H-pyrazol-4-yl)-3,4-dihydroisoquinolin-1(2H)-one]: over 10000 nM; `COc1cc(C(N)=O)c2nc(C)cc(N3CCc4c(cc(Cn5ccnc5)cc4-c4cn(C)nc4C(F)(F)F)C3=O)c2c1` [Example 198, 4-(7-((1H-Imidazol-1-yl)methyl)-5-(1-methyl-3-(trifluoromethyl)-1H-pyrazol-4-yl)-1-oxo-3,4-dihydroisoquinolin-2(1H)-yl)-6-methoxy-2-methylquinoline-8-carboxamide]: under 20 nM.
Still for that read-out and setting: the figure for `CCc1cc(C(=O)NC)c2nccc(N3CCc4c(cc(Cn5ccnc5)cc4-c4cccnc4C(F)(F)F)C3=O)c2c1` [Example 199, 4-(7-((1H-imidazol-1-yl)methyl)-1-oxo-5-(2-(trifluoromethyl)pyridin-3-yl)-3,4-dihydroisoquinolin-2(1H)-yl)-6-ethyl-N-methylquinoline-8-carboxamide] is 131 nM; for `COc1cc(C#N)c2nccc(N3CCc4c(cc(Cn5ccnc5)cc4-c4cn(C)nc4C(F)(F)F)C3=O)c2c1` [Example 205] it is under 20 nM; for `CCc1cc(N2CCN(CCOC)CC2)c2nccc(N3CCc4c(cc(Cn5ccnc5)cc4-c4cn(C)nc4C(F)(F)F)C3=O)c2c1` [Example 210] it is under 20 nM.
The same measure, in the same setting: next, `CCc1cc(N2CCN(C3COC3)CC2)c2nccc(N3CCc4c(cc(Cn5ccnc5)cc4-c4cn(C)nc4C(F)(F)F)C3=O)c2c1` [Example 215, 7-((1H-Imidazol-1-yl)methyl)-2-(6-ethyl-8-(4-(oxetan-3-yl)piperazin-1-yl)quinolin-4-yl)-5-(1-methyl-3-(trifluoromethyl)-1H-pyrazol-4-yl)-3,4-dihydroisoquinolin-1(2H)-one]: under 20 nM; `CCc1cc(C(=O)NC2CN(C(=O)c3ccncc3)C2)c2nccc(N3CCc4c(cc(Cn5ccnc5)cc4-c4cn(C)nc4C(F)(F)F)C3=O)c2c1` [Example 225]: under 20 nM.
`COc1cc(C(=O)NC2CN(C(C)=O)C2)c2nccc(N3CCc4c(cc(Cn5ccnc5)cc4-c4cn(C)nc4C(F)(F)F)C3=O)c2c1` [Example 226, 4-(7-((1H-Imidazol-1-yl)methyl)-5-(1-methyl-3-(trifluoromethyl)-1H-pyrazol-4-yl)-1-oxo-3,4-dihydroisoquinolin-2(1H)-yl)-N-(1-acetylazetidin-3-yl)-6-methoxyquinoline-8-carboxamide]: in assay [2], the GI50 came out at 43 nM.
On to `COc1cc(C(=O)NC2CN(C(=O)c3cscn3)C2)c2nccc(N3CCc4c(cc(Cn5ccnc5)cc4-c4cn(C)nc4C(F)(F)F)C3=O)c2c1` [Example 227], for which the GI50 in assay [2] was under 20 nM.
With `CCc1cc(NC(C)=O)c2nccc(N3CCc4c(cc(Cn5ccnc5)cc4-c4cn(C)nc4C(F)(F)F)C3=O)c2c1` [Example 231, N-(4-(7-((1H-Imidazol-1-yl)methyl)-5-(1-methyl-3-(trifluoromethyl)-1H-pyrazol-4-yl)-1-oxo-3,4-dihydroisoquinolin-2(1H)-yl)-6-ethylquinolin-8-yl)acetamide], in assay [1], the Ki is under 0.02 nM.
For `CCc1cc(C(=O)NC2CN(C(C)=O)C2)c2nccc(N3CCc4c(cc(Cn5ccnc5)cc4-c4cn(C)nc4C(F)(F)F)C3=O)c2c1` [Example 241], the GI50 in assay [2] is under 20 nM.
